Columns and labels:
[1] = system: Plasmodium berghei; assay: Antimalarial activity against liver stage of Plasmodium berghei ANKA harboring luciferase gene infected in human HepG2 cells pretreated for 1 hr followed by parasite infection measured after […] by Bright-Glo luminescence assay; format: functional, cell-based
[2] = system: Mycobacterium tuberculosis H37Rv; assay: Inhibition of Mycobacterium tuberculosis H37Rv Chorismate mutase at 30 uM relative to control
[3] = Inhibition of Mycobacterium tuberculosis H37Rv Chorismate mutase

Structure (SMILES)	inhibition [2] [%]	also measured
CCN(CC)CCN1C(=O)c2ccccc2NC1c1ccc(Cl)cc1 (centres undefined)	–	EC50 [1]: 1400 nM
O=C1NC2(Cc3ccccc3C2)Nc2ccc(I)cc21	30 to 35	–
COc1cc(CCNc2c([N+](=O)[O-])cc(C(=O)O)cc2S(N)(=O)=O)cc(OC)c1	–	IC50 [3]: < 10 µM
O=C1NC2(CCCCCC2)Nc2ccccc21	30 to 35	–

Reference: ChEMBL document CHEMBL4038261, “Synthetic strategy with representation on mechanistic pathway for the therapeutic applications of dihydroquinazolinones” (Eur J Med Chem, 2016)
